Assays:
Bax/Bcl-2 = assay: Western blot, Bax/Bcl-2 ratio in HepG2 cells; type: cell-based; conditions: 24 h, high concentration (sagittatoside A 49, icariside I 50, baohuoside I 32, icaritin 3.8 μg/mL), vs untreated cells
Protocol: (§1) To explore the mechanism of apoptosis induced by the hepatotoxic compounds, the expression of key proteins related to apoptosis, including Bax, Bcl-2, Caspase-3 and Caspase-9, was assessed by western blotting. HepG2 cells were treated with different concentrations of the hepatotoxic compounds for 24 h and collected with a cell scraper. The concentrations of sagittatoside A were set to 12.2, 24.5, and 49 μg/mL; those of icariside I were 12.5, 25, and 50 μg/mL; baohuoside I was used at 8, 16, and 32 μg/mL; and icaritin was tested at 0.9, 1.9 and 3.8 μg/mL. The cells were washed twice with PBS and lysed in total protein cell lysis buffer. Protein concentrations were determined using a BCA protein assay kit (Thermo Fisher Scientific, Waltham, MA, USA). Then, to destroy the 3-dimensional protein structure, the proteins in the loading buffer were heated at 95 °C for 5 min. An equal amount of protein from each sample was separated by SDS-PAGE on 10% SDS–polyacrylamide gels. After the protein was transferred to a polyvinylidene difluoride membrane (Millipore, Bedford, MA, USA), the membrane was incubated in blocking buffer (5% nonfat dairy milk in TBST) for 2 h and probed with various antibodies (1:1000) overnight at 4 °C. […] The changes in the protein expression levels are expressed as percentages relative to the levels measured in the corresponding control groups.

caspase-3 = assay: Western blot, caspase-3 expression in HepG2 cells; type: cell-based; conditions: 24 h, high concentration (sagittatoside A 49, icariside I 50, baohuoside I 32, icaritin 3.8 μg/mL), vs untreated cells
Protocol: as §1

Row | SMILES | Bax/Bcl-2 ratio (Bax/Bcl-2) | caspase-3 expression (caspase-3)
1 | COc1ccc(-c2oc3c(CC=C(C)C)c(O)cc(O)c3c(=O)c2O[C@@H]2O[C@@H](C)[C@H](O)[C@@H](O)[C@H]2O)cc1 [baohuoside I] | increased | significant increase
2 | COc1ccc(-c2oc3c(CC=C(C)C)c(O)cc(O)c3c(=O)c2O)cc1 [icaritin] | increased | significant increase
